Entries after “also recorded” stand apart in the source; their conditions may differ.

Assay [1] deals with GPR83 and GPR83del (HEK293 and U2OS clones; wild-type cells as comparison). The assay is described as follows: Ligand-dependent cAMP formation. In kind it is cell-based, human. On the procedure: Production of cyclic adenosine monophosphate (cAMP) is a hallmark of GPCRs signaling via the Gs-induced pathway. To investigate the potential of PEN to stimulate cAMP production mediated by GPR83, levels of the second messenger were determined after incubation with PEN of various GPR83-overexpressing clones as well as wild-type HEK293 and U2OS cells.
Figure 3 Analysis of ligand-dependent, GPR83-mediated cAMP production. (A) Wild-type HEK293 and U2OS cells as well as various clones with confirmed overexpression of either GPR83 or the deletion variant GPR83del (both ± HA tag) were incubated with either buffer, 1 µM PEN, or 50 µM forskolin. (B) Selected GPR83-overexpressing HEK293 clones were assayed for cAMP production using different concentrations of PEN. (C) Selected GPR83-overexpressing U2OS clones were assayed for cAMP production using different concentrations of PEN.
To measure intracellular cAMP production, the LANCE Ultra cAMP kit (Perkin Elmer) was used according to the manufacturer’s instructions. The day before the experiment, cells were seeded onto a 96-well plate with approximately 80% confluence. After 16–24 h, the medium was removed, and 100 μL/well of serum-free medium was added, followed by a 3 h incubation. Thereafter, medium was removed, and 40 μL of ligand dissolved in cAMP stimulation buffer was pipetted onto cells, then incubated for 10 min. The ligands used were pipetted in duplicate. For concentration–response curves, serial dilutions were carried out from the stock solutions of 1 mM to create a concentration range from 1 µM to 30 pM. As controls, 4 wells were treated with buffer only (negative control) and 4 wells with 50 μM forskolin (positive control). After a 10 min incubation, 10 μL of a 0.5% Triton-X 100 solution in PBS was added to each well. To lyse cells, the plate was shaken on a Vibramax 100 Shaker (Heidolph, Kelheim, Germany) (750 rpm) at room temperature for 10 min. A 10 μL volume of the cell lysates were transferred into a white 384 well plate (ProxiPlate, PerkinElmer). A 5 μL volume of the Europium-cAMP tracer (1 to 50 dilution of Eu-tracer stock in cAMP detection buffer) was added to each well. Next, 5 μL of the ULight-anti-cAMP solution (1 to 150 dilution of ULight-tracer stock in cAMP detection buffer) was added to each well. After a 1 h incubation period at room temperature in the dark, the TR-FRET signal was measured using an EnVision 2103 Multilabel Reader (Perkin Elmer).
(In general: cAMP levels reflect the balance of adenylyl cyclase and phosphodiesterase activity.)

In a further assay the test system is GPR83. The conditions noted are these: cited from earlier work. From the text:
G protein-coupled receptor 83 (GPR83), also termed glucocorticoid-induced receptor (GIR), GPR72, KIAA1540, or JP05, is a class A G protein-coupled receptor with predominant expression in the […] and proposed function in the regulation of food intake and in anxiety-like behavior [1, 2, 3]. […] A potential role of GPR83 in regulatory T cell development and function has not been confirmed. […] The present study was initiated to evaluate PEN as a ligand of GPR83. […] While one end of the peptide may be crucial for binding the receptor, an absolute requirement of both peptide termini to be free of another ...

Assay [2] concerns GPR83 with chimeric Gα16/i3 protein (CHO cells). To be noted: CHO cells transfected with GPR83 and chimeric Gα16/i3 protein; ref [10]; cited from earlier work. From the text:
In the present study, evidence for a molecular interaction of the neuropeptide PEN with the cell surface receptor GPR83 could not be found.

For another assay, the system named is GPR83 (HTLA cells). The assay is described as follows: TANGO β-arrestin assay, GPR83. It is filed as cell-based, human. The conditions noted are these: ligand library containing PEN (library plates 10 µM); HTLA cells expressing GPR83; PRESTO-Tango, RLU. As to the method: The TANGO assay reports GPCR-related activation of β-arrestin using a luminescent readout.
For the determination of β-arrestin recruitment after GPCR activation, the PRESTO-Tango system was utilized. On day one, HTLA cells (HEK293 cell line stably expressing a tTA-dependent luciferase reporter and a β-arrestin2-TEV fusion gene, maintained in RPMI supplemented with 10% FBS, 2 μg/mL puromycin, and 100 μg/mL hygromycin) were seeded into 150 mm cell culture plates at 1 × 10^7 cells per well in 30 mL of medium. The next day, transfections were performed directly in the 150 mm plates using jetPEI (Polyplus, Illkirch, France). Plasmid DNA of interest was prepared for transfection following the jetPEI protocol and with a DNA/jetPEI ratio of 1:1. A GFP-encoding plasmid was added as a transfection control (GFP plasmid added as 10% of total DNA to the total NaCl used for plasmid DNA dilution). On day 3, transfected cells were transferred at 15,000 cells per well in 30 μL of medium into 384-well black well, clear bottom plates. On day 4, ligand library multiwall plates (10 µM) were thawed, and 23 μL was added to each well. On day 5, 50 μL per well of BrightGlo luminescence reagent (diluted 10-fold with HBSS buffer) was carefully added, and plates were incubated for 10 min before luminescence reading in the EnVision 2103 Multilabel Reader (Perkin Elmer).

As for “AADHDVGSELPPEGVLGALLRV [PEN, batch #1 synthesized, batch #2 purchased from Phoenix Pharmaceuticals]”, the cAMP levels result in assay [1] (1 µM PEN or 50 µM forskolin, GPR83-overexpressing clones and wild-type HEK293 and U2OS cells, 10 min incubation, LANCE Ultra cAMP kit, TR-FRET competition, duplicate) is recorded as “did not change it”. For the same sequence, in assay [1] (titration 50 pM to 1 µM, selected GPR83-expressing HEK293 and U2OS clones, LANCE Ultra cAMP kit, TR-FRET, 10 min incubation, duplicate), the “cAMP formation, concentration-response” value is listed as “did not indicate PEN-dependent cAMP formation”. In assay [1] (up to 1 µM PEN, multiple clones of GPR83-overexpressing HEK293 and U2OS cells), the “increased (via Gs) or decreased (via Gi) production of cAMP” value was “did not reveal any evidence for an increased (via Gs) or decreased (via Gi) production of cAMP”. For the same sequence, in the assay on GPR83 (2016 proposal, ref [10]), the “ligand for GPR83” value was “serves as a distinct ligand for GPR83”. For the same sequence, the “GPR83 ligand and agonist” value in the assay with GPR83 (comparative evaluation, multiple assay systems, ref [16]) is given as “not PEN”. The “activation of GPR83” value in the assay with GPR83 (independent reports from two other labs, ref [12],[13]) is given as “supported activation of GPR83 by PEN”. The “intracellular Ca2+ mobilization” value in assay [2] was “PEN-induced intracellular Ca^2+ mobilization”. For the same sequence, the “β-arrestin activation (luminescence)” value in the assay on GPR83 (HTLA cells) was “no reactivity was detected; also recorded: failed to generate a signal”.

(Values after paper PMC10606834, “Is the Neuropeptide PEN a Ligand of GPR83?” (International Journal of Molecular Sciences, 2023).)
